Source: patent publication US20260078120A1, “SUBSTITUTED PYRIDOPYRIMIDINONES” (MIRATI THERAPEUTICS, INC., priority 2022, published 2026)

What was measured:
[1] = system: T47D (PI3Kα H1047R mutant) cells; experiment: CellTiter-Glo 2.0 luminescent cell viability assay, 72 hours, T47D cells; assay type: cell-based; conditions: Homo sapiens, T47D, 72 h, T47D (PI3Kα H1047R mutant) cells, CellTiter-Glo, approximately 72 hours; read-out: T47D (H1047R mutant) Viability IC50
Method in brief: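 Viability was measured by CellTiter-Glo 2.0 luminescence after approximately 72 h of compound exposure at 37° C. Plating was 1000 cells per well the day before dosing, with ten 1:4 dilutions from a 10 µM top concentration. Values as percent of vehicle were fitted by variable-slope log(inhibitor) regression to give IC50.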

[2] = system: SKBR3 (PI3Kα wild type) cells; experiment: CellTiter-Glo 2.0 luminescent cell viability assay, 72 hours, SKBR3 cells; assay type: cell-based; conditions: Homo sapiens, SK-BR-3, 72 h, SKBR3 (PI3Kα wild type) cells, CellTiter-Glo, approximately 72 hours; read-out: SKBR3 (WT) Viability IC50
Method in brief: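 Viability measured via CTG luminescence following roughly 72 hours of compound exposure at 37° C. Dosing used a 10 um starting concentration diluted 1:4 over 10 points; percent-of-vehicle data fitted with a variable-slope four-parameter model for IC50.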

Cc1cc(C(C)Nc2ccc(C(=O)O)cc2)c2nc(N3CCCCC3)cc(=O)n2c1 (centres unmarked) [Example 11-388, 4-((1-(7-methyl-4-oxo-2-(piperidin-1-yl)-4H-pyrido [1,2-a]pyrimidin-9-yl)ethyl)amino)benzoic acid]
IC50 [1]: > 10 µM | IC50 [2]: > 10 µM

Cc1cc(C(C)Nc2cccc(C(=O)O)c2)c2nc(N3CCCCC3)cc(=O)n2c1 (centres unmarked) [Example 11-389, 3-((1-(7-methyl-4-oxo-2-(piperidin-1-yl)-4H-pyrido[1,2-a]pyrimidin-9-yl)ethyl)amino)benzoic acid]
IC50 [1]: > 10 µM | IC50 [2]: > 10 µM

Cc1cc(C(C)Nc2cccc(C)c2C(=O)O)c2nc(N3CCCCC3)cc(=O)n2c1 (centres unmarked) [Example 11-390, 2-methyl-6-((1-(7-methyl-4-oxo-2-(piperidin-1-yl)-4H-pyrido[1,2-a]pyrimidin-9-yl)ethyl)amino)benzoic acid]
IC50 [1]: > 10 µM | IC50 [2]: > 10 µM

Cc1cc(C(C)Nc2ccccc2C(=O)O)c2nc(-c3ccc(F)cc3)cc(=O)n2c1 (centres unmarked) [Example 11-391, 2-((1-(2-(4-fluorophenyl)-7-methyl-4-oxo-4H-pyrido[1,2-a]pyrimidin-9-yl)ethyl)amino)benzoic acid]
IC50 [1]: 9.62 µM | IC50 [2]: > 10 µM

COc1ccc(-c2cc(=O)n3cc(C)cc(C(C)Nc4ccccc4C(=O)O)c3n2)cc1 (centres unmarked) [Example 11-392, 2-((1-(2-(4-methoxyphenyl)-7-methyl-4-oxo-4H-pyrido[1,2-a]pyrimidin-9-yl)ethyl)amino)benzoic acid]
IC50 [1]: 4.04 µM | IC50 [2]: > 10 µM

COc1cccc(-c2cc(=O)n3cc(C)cc(C(C)Nc4ccccc4C(=O)O)c3n2)c1 (centres unmarked) [Example 11-393, 2-((1-(2-(3-methoxyphenyl)-7-methyl-4-oxo-4H-pyrido[1,2-a]pyrimidin-9-yl)ethyl)amino)benzoic acid]
IC50 [1]: 1.29 µM | IC50 [2]: > 10 µM

COc1ccccc1-c1cc(=O)n2cc(C)cc(C(C)Nc3ccccc3C(=O)O)c2n1 (centres unmarked) [Example 11-394, 2-((1-(2-(2-methoxyphenyl)-7-methyl-4-oxo-4H-pyrido[1,2-a]pyrimidin-9-yl)ethyl)amino)benzoic acid]
IC50 [1]: > 10 µM | IC50 [2]: > 10 µM

Cc1cc(C(C)Nc2ccccc2C(=O)O)c2nc(-c3ccccc3C)cc(=O)n2c1 (centres unmarked) [Example 11-395, 2-((1-(7-methyl-4-oxo-2-(o-tolyl)-4H-pyrido[1,2-a]pyrimidin-9-yl)ethyl)amino)benzoic acid]
IC50 [1]: > 10 µM | IC50 [2]: > 10 µM

Cc1cc(C(C)Nc2ccccc2C(=O)O)c2nc(-c3ccc(Cl)cc3)cc(=O)n2c1 (centres unmarked) [Example 11-396, 2-((1-(2-(4-chlorophenyl)-7-methyl-4-oxo-4H-pyrido[1,2-a]pyrimidin-9-yl)ethyl)amino)benzoic acid]
IC50 [1]: 4.38 µM | IC50 [2]: > 10 µM

Cc1cc(C(C)Nc2ccccc2C(=O)O)c2nc(-c3ccc(C#N)cc3)cc(=O)n2c1 (centres unmarked) [Example 11-397, 2-((1-(2-(4-cyanophenyl)-7-methyl-4-oxo-4H-pyrido[1,2-a]pyrimidin-9-yl)ethyl)amino)benzoic acid]
IC50 [1]: 3.37 µM | IC50 [2]: > 10 µM

Cc1cc(C(C)Nc2ccccc2C(=O)O)c2nc(-c3cccc(C#N)c3)cc(=O)n2c1 (centres unmarked) [Example 11-398, 2-((1-(2-(3-cyanophenyl)-7-methyl-4-oxo-4H-pyrido[1,2-a]pyrimidin-9-yl)ethyl)amino)benzoic acid]
IC50 [1]: > 10 µM | IC50 [2]: > 10 µM

Cc1cc(C(C)Nc2ccccc2C(=O)O)c2nc(-c3ccccc3C#N)cc(=O)n2c1 (centres unmarked) [Example 11-399, 2-((1-(2-(2-cyanophenyl)-7-methyl-4-oxo-4H-pyrido[1,2-a]pyrimidin-9-yl)ethyl)amino)benzoic acid]
IC50 [1]: > 10 µM | IC50 [2]: > 10 µM

Cc1cc(C(C)Nc2ccccc2C(=O)O)c2nc(-c3ccncc3)cc(=O)n2c1 (centres unmarked) [Example 11-400, 2-((1-(7-methyl-4-oxo-2-(pyridin-4-yl)-4H-pyrido[1,2-a]pyrimidin-9-yl)ethyl)amino)benzoic acid]
IC50 [1]: 1.05 µM | IC50 [2]: > 10 µM

Cc1cc(C(C)Nc2ccccc2C(=O)O)c2nc(-c3cccnc3)cc(=O)n2c1 (centres unmarked) [Example 11-401, 2-((1-(7-methyl-4-oxo-2-(pyridin-3-yl)-4H-pyrido[1,2-a]pyrimidin-9-yl)ethyl)amino)benzoic acid]
IC50 [1]: 3.27 µM | IC50 [2]: > 10 µM

Cc1cc(C(C)Nc2ccccc2C(=O)O)c2nc(-c3ccccn3)cc(=O)n2c1 (centres unmarked) [Example 11-402, 2-((1-(7-methyl-4-oxo-2-(pyridin-2-yl)-4H-pyrido[1,2-a]pyrimidin-9-yl)ethyl)amino)benzoic acid]
IC50 [1]: 6.87 µM | IC50 [2]: > 10 µM

Cc1cc(C(C)Nc2ccccc2C(=O)O)c2nc(-c3ccccc3)c(C)c(=O)n2c1 (centres unmarked) [Example 11-403, 2-((1-(3,7-dimethyl-4-oxo-2-phenyl-4H-pyrido[1,2-a]pyrimidin-9-yl)ethyl)amino)benzoic acid]
IC50 [1]: 1.06 µM | IC50 [2]: > 10 µM

Cc1cc(C(C)Nc2ccccc2C(=O)O)c2nc(-c3ccn(C)n3)cc(=O)n2c1 (centres unmarked) [Example 11-404, 2-((1-(7-methyl-2-(1-methyl-1H-pyrazol-3-yl)-4-oxo-4H-pyrido[1,2-a]pyrimidin-9-yl)ethyl)amino)benzoic acid]
IC50 [1]: > 10 µM | IC50 [2]: > 10 µM

Cc1cc(C(C)Nc2ccccc2C(=O)O)c2nc(-c3cnn(C)c3)cc(=O)n2c1 (centres unmarked) [Example 11-405, 2-((1-(7-methyl-2-(1-methyl-1H-pyrazol-4-yl)-4-oxo-4H-pyrido[1,2-a]pyrimidin-9-yl)ethyl)amino)benzoic acid]
IC50 [1]: 8.38 µM | IC50 [2]: > 10 µM

Cc1cc([C@H](C)Nc2ccccc2C(=O)O)c2nc(N3Cc4ccccc4C3)cc(=O)n2c1 [Example 11-406, (S)-2-((1-(2-(isoindolin-2-yl)-7-methyl-4-oxo-4H-pyrido[1,2-a]pyrimidin-9-yl)ethyl)amino)benzoic acid]
IC50 [1]: 0.864 µM | IC50 [2]: > 10 µM

Cc1cc(C(C)Nc2ccccc2C(=O)O)c2nc(N3CCC3)cc(=O)n2c1 (centres unmarked) [Example 11-407, 2-((1-(2-(azetidin-1-yl)-7-methyl-4-oxo-4H-pyrido[1,2-a]pyrimidin-9-yl)ethyl)amino)benzoic acid]
IC50 [1]: > 10 µM | IC50 [2]: > 10 µM

Cc1cc(C(C)Nc2ccccc2C(=O)O)c2nc(N(C)C)cc(=O)n2c1 (centres unmarked) [Example 11-408, 2-((1-(2-(dimethylamino)-7-methyl-4-oxo-4H-pyrido[1,2-a]pyrimidin-9-yl)ethyl)amino)benzoic acid]
IC50 [1]: > 10 µM | IC50 [2]: > 10 µM

Cc1cc(C#N)c2nc(N3CCCCC3)cc(=O)n2c1 [Example 11-409, 7-methyl-4-oxo-2-(piperidin-1-yl)-4H-pyrido[1,2-a]pyrimidine-9-carbonitrile]
IC50 [1]: > 10 µM | IC50 [2]: > 10 µM

CCC(O)c1cc(C)cn2c(=O)cc(N3CCCCC3)nc12 (centres unmarked) [Example 11-410, 9-(1-hydroxypropyl)-7-methyl-2-(piperidin-1-yl)-4H-pyrido[1,2-a]pyrimidin-4-one]
IC50 [1]: > 10 µM | IC50 [2]: > 10 µM

CCC(Nc1ccccc1C(=O)O)c1cc(C)cn2c(=O)cc(N3CCCCC3)nc12 (centres unmarked) [Example 11-411, 2-((1-(7-methyl-4-oxo-2-(piperidin-1-yl)-4H-pyrido[1,2-a]pyrimidin-9-yl)propyl)amino)benzoic acid]
IC50 [1]: > 10 µM | IC50 [2]: > 10 µM

Cc1cc(CNc2ccccc2C(=O)O)c2nc(N3CCCCC3)cc(=O)n2c1 [Example 11-412]
IC50 [1]: > 10 µM | IC50 [2]: > 10 µM

Cc1cc(C(C)Nc2ccccc2C(=O)O)c2nc(N3CCCCC3)c(C3CC3)c(=O)n2c1 (centres unmarked) [Example 11-413, 2-((1-(3-cyclopropyl-7-methyl-4-oxo-2-(piperidin-1-yl)-4H-pyrido[1,2-a]pyrimidin-9-yl)ethyl)amino)benzoic acid]
IC50 [1]: 1.65 µM | IC50 [2]: > 10 µM

Cc1cc([C@H](C)Nc2ccccc2C(=O)O)c2nc(N3CCCCC3)c(C(F)(F)F)c(=O)n2c1 [Example 11-414, (S)-2-((1-(7-methyl-4-oxo-2-(piperidin-1-yl)-3-(trifluoromethyl)-4H-pyrido[1,2-a]pyrimidin-9-yl)ethyl)amino)benzoic acid]
IC50 [1]: 1.82 µM | IC50 [2]: > 10 µM

Cc1cc(C(C)Nc2ccccc2C(=O)O)c2nc(N3CCCCC3)c(C(F)(F)F)c(=O)n2c1 (centres unmarked) [Example 11-415, 2-((1-(7-methyl-4-oxo-2-(piperidin-1-yl)-3-(trifluoromethyl)-4H-pyrido[1,2-a]pyrimidin-9-yl)ethyl)amino)benzoic acid]
IC50 [1]: 0.532 µM | IC50 [2]: 0.89 µM

CC(Nc1ccccc1C(=O)O)c1cc(C(F)(F)F)cn2c(=O)cc(N3CCCCC3)nc12 (centres unmarked) [Example 11-416, 2-((1-(4-oxo-2-(piperidin-1-yl)-7-(trifluoromethyl)-4H-pyrido[1,2-a]pyrimidin-9-yl)ethyl)amino)benzoic acid]
IC50 [1]: 9.09 µM | IC50 [2]: > 10 µM

C[C@@H](Nc1ccccc1C(=O)O)c1cc(C#N)cn2c(=O)cc(N3CCC(F)(F)CC3)nc12 [Example 11-418, (R)-2-((1-(7-cyano-2-(4,4-difluoropiperidin-1-yl)-4-oxo-4H-pyrido[1,2-a]pyrimidin-9-yl)ethyl)amino)benzoic acid]
IC50 [1]: > 10 µM | IC50 [2]: > 10 µM

CC(Nc1ccccc1C(=O)O)c1cc(C#N)cn2c(=O)cc(N3CCC(F)(F)CC3)nc12 (centres unmarked) [Example 11-419, 2-((1-(7-cyano-2-(4,4-difluoropiperidin-1-yl)-4-oxo-4H-pyrido[1,2-a]pyrimidin-9-yl)ethyl)amino)benzoic acid]
IC50 [1]: > 10 µM | IC50 [2]: > 10 µM
